According to patent US6699901B1, “Dicarboxylato diammine platinum derivatives and compositions comprising them as anti-tumor agents” (priority 2000, dated 2004):
“Also recorded” adds a separate entry of the source. Read-outs that look alike come from different tables or passages of the source.

Experiments:
[1] = tested on: human hepatic cancer BEL-7402 cells; assay: Ultra-microstructure of BEL-7402 cells by transmission electronic microscope; assay type: cell-based; details: different doses
Text: 3. […] Then the changes of the ultra-microstructure were observed via transmission electronic microscope. […] The vacuoles and the lipid drop in the plasma increased drastically until necrotic changes, karyopyknosis, karyorrhexis, karyolysis and complete disintegration occurred (FIG. 6-FIG. 11).
e). […] The cells untreated appeared in the shape of irregular polygon, with abundant microvilli on the cell surface, plentiful organelles and different amount of glycogen granules in the plasma. […] The vacuoles and the lipid drop in the plasma increased drastically until necrotic changes, karyopyknosis, karyorrhexis, karyolysis and complete disintegration occurred.

carnuncle S180 = assay: Carcinostatic rates against carnuncle S180 in mice; assay type: in vivo, Kunming mice; details: for Mice After Injection: 10 mice before injection
[2] = tested on: gastric cancer BGC-823 cells; assay: Determination of IC50, MTT, BGC-823 cells; assay type: cell-based
Experimental: a). Cultured gastric cancer BGC-823 cells in RPMJ-1640 nutritional fluid containing 15% fetal calf serum; then inoculated them onto 96-well culture plate, 1×10^4 cells per well; Put it in an incubator with temperature of 37° C. and 5% of CO2. […] After 72 hours of culture, added MTT fluid. An hour later, DMSO was added for coloration. OD value was assayed with enzyme labeling instrument. Finally, calculated the response rate of the drug in each concentration and determined IC50 based on the coordinate process.

[3] = tested on: human hepatic cancer BEL-7402 cells; assay: Dynamic growth of BEL-7402 cells cultured in vitro; assay type: cell-based; details: 10 μg/ml and 20 μg/ml, observed for eight days
Experimental: 1. […] From the third day on, the survival cells in the treated group were less than that in the control group, in which the cells grew logarithmically while those in the treated group decreased gradually. The difference among the groups became wider as time went by; moreover, the survival cells of 20 μg/ml group were less than those of 10 μg/ml group.
c). […] Then observed the dynamic growth of the cells for eight days. […] From the third day on, the cells in the control group grew logarithmically while those in the treated group decreased gradually. The difference among the groups became wider as time went by.

[4] = Antitumor effects (test not specified)
[5] = tested on: human breast cancer, lung cancer, hepatic cancer, colorectal cancer and ovary cancer; assay: Nude mice inoculation carcinostatic rate experiments, human cancers; assay type: in vivo; details: for response carcinostatic rate: injected abdominally
Experimental: (§1) The mice were divided into three groups, which were given large dose (LD50×⅕), middle dose (LD50× 1/10) and small dose (LD50× 1/20) respectively. […] Beijing's institute for drug control carried out human hepatic cancer H22 nude mice inoculation carcinostatic rate experiments. […] Every group was given 0.2 ml every time per day for seven consecutive days. The mice were put to death thirty days after inoculation.

[6] = tested on: cells of adenocarcinoma of breast; assay: IC50 on human breast cancer cells; assay type: cell-based
lung cancer cells = assay: Selective killing experiment, lung cancer cells; assay type: cell-based, human; details: within a certain range of doses
cancer = assay: Typical cases treated by oral capsules and injections; assay type: in vivo, human
Text: 1. The oral capsules were composed of bicycloplatin and adjuvant.
2. […] A course of treatment took 6 times (12 ampoules). The second course of treatment began after an interval of two weeks. After three consecutive courses of treatment, general examination was taken.

Kunming mice = assay: Acute toxicity, IP once a day for ten days, LD50 by Bliss method; assay type: in vivo
Text: a). Divided 50 Kunming mice randomly into 5 groups, each having 10 mice, weighing from 18 g to 22 g and being half male and half female.

human hepatic cancer H22 = details: for response carcinostatic rate: intravenous, daily for seven days
Experimental: as §1

[7] = tested on: human oral cancer KB cells; assay: Determination of IC50, MTT, KB cells; assay type: cell-based; details: for Response rate: KB
[8] = tested on: human hepatic cancer cells BEL-7402; assay: IC50 on human hepatic cancer cells BEL-7402; assay type: cell-based
rats = assay: Long-term toxicity experiments in rats
Text: Thus we can not only know the target organs of toxic reactions and the reversibility of the damages through observing the main body reactions and degrees of injuries after three months of administration, but also determine nontoxic dose to provide reference for therapeutic safe dose.
c). […] Weighed the rats once a week and adjusted doses according to weight changes. Stopped administration after 12 weeks and continued observing for 2 weeks.

melanoma cells = assay: Selective killing experiment, melanoma cells; assay type: cell-based, human; details: within a certain range of doses
[9] = 12th week of administration and 2 weeks after withdrawal
[10] = rats, oral LD50/10 once a day for 90 days

Substance: double 1,1-cyclobutane dicarboxylic acid diaminoplatin complex [bicycloplatin]
- cell death [1]: Five days later cell death occurred
- changes of the ultra-microstructure [1]: degenerative changes of different degrees with the increase of the concentration of drug; also recorded: degenerative changes of different degrees with the increase of the concentration of bicycloplatin
- antitumor effects on S180 (carnuncle S180; 10-30 mg/kg): potent antitumor effects on S180 dependent on doses
- Body Weight After Injection (carnuncle S180; S180, 10 mg/kg): 25.8 g
- Response rate (carnuncle S180; S180, 10 mg/kg): 39.7%
- Tumor Weight (carnuncle S180; S180, 10 mg/kg): 1.03 ± 0.30 g
- Mice After Injection (carnuncle S180; S180, 10 mg/kg): 10
- Body Weight After Injection (carnuncle S180; S180, 20 mg/kg): 18.1 g
- Response rate (carnuncle S180; S180, 20 mg/kg): 68.0%
- Tumor Weight (carnuncle S180; S180, 20 mg/kg): 0.54 ± 0.16 g
- Mice After Injection (carnuncle S180; S180, 20 mg/kg): 10
- Body Weight After Injection (carnuncle S180; S180, 30 mg/kg): 21.5 g
- Response rate (carnuncle S180; S180, 30 mg/kg): 71.0%
- Tumor Weight (carnuncle S180; S180, 30 mg/kg): 0.49 ± 0.16 g
- Mice After Injection (carnuncle S180; S180, 30 mg/kg): 10
- Response rate ([2]; BGC-823, 0.78 μg/ml): 6.0%
- Response rate ([2]; BGC-823, 1.56 μg/ml): 19.0%
- Response rate ([2]; BGC-823, 3.13 μg/ml): 21.0%
- Response rate ([2]; BGC-823, 6.25 μg/ml): 33.0%
- Response rate ([2]; BGC-823, 12.5 μg/ml): 51.0%
- Response rate ([2]; BGC-823, 25 μg/ml): 60.0%
- Response rate ([2]; BGC-823, 50 μg/ml): 74.6%
- Response rate ([2]; BGC-823, 100 μg/ml): 80.3%
- Response rate ([2]; BGC-823, 200 μg/ml): 83.3%
- IC50 ([2]; BGC-823, 72 hours): IC50 = 14.80 ± 1.34 μg/ml
- inhibition of growth of BEL-7402 cells [3]: could inhibit the growth of human hepatic cancer BEL-7402 cells cultured in vitro dependent on time and dose; also recorded: potent antitumor effects on human hepatic cancer BEL-7402 cells dependent on doses
- antitumor spectrum [4]: Broad Antitumor Spectrum
- response carcinostatic rate ([5]; large dose (LD50×⅕)): 90%
- response carcinostatic rate ([5]; middle dose (LD50×1/10)): 95%
- response carcinostatic rate ([5]; small dose (LD50×1/20)): 70%
- carcinostatic rates ([5]; same doses given by stomach lavage, compared with abdominal injection): a little lower carcinostatic rates
- IC50 [6]: 2.8 µg/mL
- lung cancer cells killed (lung cancer cells): 50%
- tumor (cancer; Patient Li, end of the 2nd course of treatment): basically disappeared
- lung metastatic carcinoma (cancer; Patient Ma, hepatic cancer, capsules and injections, after two months): disappeared
- outcome (cancer; Patient Meng, adenocarcinoma of lung at late stage, injections and oral capsules): cured in general
- final outcome (cancer; Patient Wang, late hepatic cancer): the tumor disappeared
- outcome (cancer; Patient Yang, melanoma, metastasis to liver and lung, 36 ampoules): The metastatic tumors had been cured and the melanoma had necrosed
- three masses with size of 2×2 cm^2 (cancer; Patient Zhu, cystic cancer, oral capsules): disappeared completely
- metastasis to liver (cancer; foreign patient, intestinal cancer, 36 ampoules and 36 oral capsules): disappeared
- abnormal manifestations (Kunming mice; IP 96-400 mg/kg): did not occur except local irritation of the high concentration
- time of death (Kunming mice; IP 96-400 mg/kg): on the 3rd to 7th day
- LD50±SE (Kunming mice; Kunming mice, IP once a day for ten consecutive days, Bliss method): 210.5 ± 1.14 mg/kg
- LD50 compared with cisplatin and carboplatin (Kunming mice; determined under the same condition): significantly higher than the LD50 of cisplatin and carboplatin
- death of nude mice (human hepatic cancer H22; every group containing ten mice): No death of nude mice was observed
- response carcinostatic rate (human hepatic cancer H22; large dose (LD50×⅕)): 50.85%
- response carcinostatic rate (human hepatic cancer H22; middle dose (LD50×1/10)): 57.40%
- response carcinostatic rate (human hepatic cancer H22; small dose (LD50×1/20)): 35.20%
- IC50 ([7]; KB cells, 72 hours): IC50 = 13.24 ± 1.33 μg/ml
- Response rate ([7]; 0.78 μg/ml): 5.9%
- Response rate ([7]; 1.56 μg/ml): 14.8%
- Response rate ([7]; 3.13 μg/ml): 28.2%
- Response rate ([7]; 6.25 μg/ml): 26.2%
- Response rate ([7]; 12.5 μg/ml): 36.7%
- Response rate ([7]; 25 μg/ml): 66.6%
- Response rate ([7]; 50 μg/ml): 77.1%
- Response rate ([7]; 100 μg/ml): 93.0%
- Response rate ([7]; 200 μg/ml): 93.3%
- IC50 [8]: 1.3 µg/mL
- BUN, GPT, GOT versus control group (rats; [9]): no significant difference
- WBC, RBC, hemoglobin, platelet (rats; [9]): all within normal ranges
- histological examination, livers and spleens (rats; after observation): different degrees of hyperemia and edema
- histological examination, other visceras (rats; after observation): No organic changes caused by the drug are found
- other visceral coefficients (rats; after observation): all normal
- weights of the livers (rats; after observation, versus control group): slightly heavier than that of the control group
- diet, activity and state of the rats (rats; [10]): no obvious abnormality
- mortality (rats; [10]): No mortally occurred
- injuries of the drug to viscera (rats; rats, three months of administration): dose-dependent
- damage and recovery (rats; small dose): does a little damage to the group and the group can recover fully
- reversibility of injuries (rats; therapeutic dose): alleviated after one month of withdrawal
- melanoma cells (melanophore) killed (melanoma cells): 80%
